Assay results reported in patent US7662767B2, “Polynucleotide intercalator interceptors and inhibitors” (Materials Evolution and Development USA, Inc., priority 2000, dated 2010).
Several values for one entry are separate records, joined by “and”; a condition that tells them apart may be missing. Equal entries are not always repeated. Entries after “also recorded” stand apart in the source; their conditions may differ.

Assays:
[1] = Fluorescence of 2 μM acridine orange solution with NaCl, caffeine and/or dsDNA
Method: The addition of salt could possibly affect the Kassoc values of AO and the other reactants by modifying the charge on the reactants and/or decreasing the influence of water molecules. To minimize AO self-association, i.e. dimerization, a relatively low concentration of AO [2 μM] may be used. The interaction between reactants was analyzed by spectrofluorometric methods at λex 485 nm and monitored at λem 530 nm (green).
Solutions of 2 μM AO alone and in various combinations with 150 mM NaCl, 5 mM CAF, 2 mM DNA were studied. Table 3-2 summarizes the results and the statistical analysis for differences between means.
In Table 3-2, fluorescence (λex=485 nm and λem=530 nm) was measured for AO [2 μM] in the absence of, and in the presence of, NaCl [150 mM], caffeine [5 mM], and DNA [2 mM] alone or in combination. Significant differences were found by one-way ANOVA (p≦0.05). […] It is noted that n=3 unless denoted by an * which indicates n=4.
Spectrofluorometric analyses at λex 485 nm and λem 530 nm were performed on solutions of 2:M AO in combination with 5 mM CAF and 2 mM dsDNA, with and without 150 mM NaCl. […] Note that CAF had no significant effect on the fluorescence of the AO solution when in the presence of NaCl (SNK letter designation “B”).

[2] = Optical titration (absorbance) of acridine orange with xanthines/purines, Kassoc from delta absorbance; format: binding; settings: for enhancement of the ability of theophylline to complex AO: Kassoc relative to theophylline; for Kassoc ± S.E.: binding affinity between acridine orange (10 μM) and compound, 5 mM HEPES pH 7.0, 25±1° C., 0 = no measurable association detected; for K ± S.D.: AO-CAF, Absorbance, AO [10 μM], CAF [1-5000 μM], this study
Method: A red spectral shift in the optical adsorption maximum of AO upon the addition of a particular xanthine, indicates the possibility of a complex being formed between the two compounds. Spectral shifts can be measured by optical titrations.
Optical titrations (serial additions of various xanthines to a solution of AO) were performed on a Beckman DU-600 Scanning Spectrophotometer (Beckman Instrument Co., New York, N.Y.) using a 3 mL (1-cm light path) quartz cuvette containing 2.0 mL of a […]. The DU600 Spectrophotometer was blanked with 2 mL of a pH 7.0 buffered 5 mM HEPES solution over the full range of wavelengths to be scanned prior to sample analysis. This reduced the need to subtract the background absorbance from the HEPES buffer. Optical absorbance scans were performed over a wavelength range preferably from 400 nm to 550 nm. […] The 10 μM AO solution was scanned before the start of each titration series to quantitatively monitor any changes in the absorbance spectrum. Optical absorbance experiments were performed using aliquots varying in volume from 1:L to 20:L taken from prepared xanthine stock solutions (5 mM to 50 mM) and titrated into the cuvette containing 2.0 mL of the 10 μM AO solution. The solution in the cuvette was then thoroughly mixed by 10 seconds of shaking before scanning. All titrations were performed at room temperature (25±1° C.). The absorbance spectra were measured in 1 nm intervals and stored in digital form. Digitized scan data was converted to a Lotus Spreadsheet file (*.wk1) using a conversion program supplied by the manufacturer (Beckman Instruments Inc.) then imported into a Microsoft Excel 97™ Workbook file (*.xls) and saved in this format for further analysis. Spectral data for each titration was combined and expressed in graphic form (Excel™) (X-axis=wavelength in nm; Y-axis=optical absorbance) for each xanthine titrated with AO. […] Adjusted absorption values were plotted and compared to spectra from non-complexed AO. This allowed for the visualization of an expected spectral shift that occurs when AO forms a complex with a xanthine.
The association constant, Kassoc, may be used to analyze the binding ability of modified xanthines to DNA intercalators. The association constant may be calculated based upon a differential shift in the absorbance spectrum. When the presence of the xanthine caused a spectral shift, a difference absorbance plot or delta plot was obtained. Delta plots were constructed by subtracting the adjusted absorption spectrum of AO in the presence of the xanthine from the initial spectrum of AO alone at each wavelength and for each aliquot of the titration. This procedure allowed for the creation of difference absorption values or delta absorption values. Delta absorption values obtained in this manner (Y-axis=delta absorption) were plotted against wavelength in nm (X-axis). The appearance of a single isobestic point was indicative of only two species present in solution, AO, and an AO complex. Graphic representation allowed for the selection of a wavelength with the maximum sensitivity for determining the association constant. This wavelength was characterized by the greatest positive response in delta absorbance values observed upon addition of each aliquot of xanthine to the AO solution. The AO-xanthine association or binding constant was determined by the following equilibrium expression: I+X≡IX EQUATION 1: […]
Where I represents the intercalator (AO), X represents the interceptor molecule (xanthine), and IX represents the AO-xanthine complex, respectively.

[3] = tested on: chicken erythrocyte nuclear chromatin; assay: Quantified removal of intercalated AO from chicken erythrocyte smears, fluorescence plate reader; settings: 100 mM xanthine, static, 10 seconds to two hours, AO 1 mM 10 sec stain, λex 485 nm, λem 530 nm
Method: Microscope slides (slides) coated with chicken erythrocytes were stained by placing the slide into a 50 ml beaker filled with a 1 mM solution of AO prepared in distilled water for approximately 10 seconds (static) followed by three successive 10 second rinses in distilled water before drying at room temperature. Care was taken to store all slides in the dark when not in use to avoid photobleaching. Stained slides were dried prior to being exposed to 50 ml of a 100 mM solution of either CAF or aminophylline (AM) for set time periods under static conditions. Exposure to the xanthine solution was followed by three 10-second rinses with distilled water and drying of the slides in the dark prior to fluorescence analysis. Control slides consisted of erythrocyte coated slides that were subsequently placed in only distilled water (no stain) prior to drying, blank slides (no erythrocytes) placed in AO staining solutions then dried served as negative controls, and erythrocyte coated cells stained with AO but exposed to only distilled water and not a xanthine solution served as positive control. The stained microscope slides were then attached by tape to a plastic frame (upside down 96-well plate cover) and fluorescence determined using a Perkin-Elmer Model HTS 7000 Bio Assay Reader with λex 485nm and λem 530 with the gain set at 40.
Distilled water served as solvent control (n=8).

[4] = 2 μM AO, caffeine 5 mM, dsDNA 2 mM where present, λex 485 nm, λem 530 nm
[5] = Table 4-2, in parentheses under compound, taken from Table 2-1
[6] = Table 4-3, taken from Table 2-1

SMILES | Fluorescence With NaCl [150 mM] Mean ± S.E. [1, 4] | Fluorescence Without NaCl Mean ± S.E. [1, 4] | enhancement of the ability of theophylline to complex AO [2] [%] | Kassoc [2, 5] | Kassoc [2, 6] [M⁻¹] | Kassoc ± S.E. [2] | Kassoc ± S.E. ([2]; listed as AM) [M⁻¹] | Kassoc ± S.E. ([2]; listed as aminophylline) | reduction of fluorescence (removal of AO) versus time of exposure ([3]; listed as AM) | increase of fluorescence of 2 μM AO at 530 nm by addition ([1]; 2 mM DNA or 5 mM CAF, without NaCl) [%] | increase in fluorescence intensity of AO by addition ([1]; DNA or CAF in the presence of 150 mM NaCl) [%] | K ± S.D. [2] | K ± S.D. ([2]; listed as CAF-AO) [M⁻¹] | Kassoc ([2]; Table 2-2, Kassoc value with acridine orange (this report)) [M⁻¹] | Kassoc ± S.E. ([2]; listed as CAF) [M⁻¹] | Kassoc ± S.E. ([2]; listed as CAF-AO) [M⁻¹] | Kassoc ± S.E. ([2]; listed as CAP) [M⁻¹] | reduction of fluorescence (removal of AO) versus time of exposure [3]
CN(C)c1ccc2cc3ccc(N(C)C)cc3nc2c1.Cl [AO, 3,6-bis[dimethylamino]acridine hydrochloride] | 635.5 ± 17.7 (B) | 514.0 ± 6.5 (A) ^ | – | – | – | – | – | – | – | – | – | – | – | – | – | – | – | –
Cn1c(=O)c2[nH]cnc2n(C)c1=O.NCCN [1,3-dimethyl xanthine ethylenediamine] | – | – | 280 | (596) M^−1 | 596 | 596.2 ± 6.5 M⁻¹ | 596 | 596.2 M⁻¹ and 596 M⁻¹ | followed first order decay kinetics; also recorded: more rapid removal of AO from the nuclear chromatin | – | – | – | – | – | – | – | – | –
Cn1c(=O)c2c(ncn2C)n(C)c1=O [1,3,7-trimethyl xanthine (caffeine), 1,3,7-trimethyl xanthine] | – | – | 63 | (256) M^−1 | 256 | 255.7 ± 4.8^c M^−1 | – | – | – | 29 | 36 | 255 ± 5 M⁻¹ and 256 ± 5 M⁻¹ | ~250 | 256 | 256 | 256 | ~256 | followed first order decay kinetics
